{"source": "patent US9051310B2", "about": "“Nicotinamide derivative or salt thereof” (FUJIFILM Corporation, priority 2011, dated 2015)", "key": {"[1]": {"target": "T1, glutathione S-transferase (GST)-linked full-length human Syk protein (Homo sapiens, UniProt P43405)", "T1 construct": "glutathione S-transferase (GST)-linked full-length human Syk protein; purchased Carna Biosciences; host or cells: Baculovirus expression system", "test": "Syk enzyme assay", "format": "biochemical", "conditions": "0.83 nM Syk, time-resolved fluorescence; read-out: IC50 of Syk-inhibitory activity", "in_short": "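Phosphotyrosine on a biotin-peptide substrate (0.5 μM) was read by time-resolved fluorescence at 615 and 665 nm with Eu-anti-pTyr antibody and APC-streptavidin after 1 h EDTA stop.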"}, "[2]": {"test_system": "THP-1 cells (phagocytosis of opsonized Escherichia coli)", "test": "Antibody-dependent phagocytosis assay", "format": "cell-based", "conditions": "Homo sapiens; IFNγ differentiated THP-1 cells, opsonized pHrodo Escherichia coli, 3 hours; read-out: IC50 upon phagocytosis inhibition", "protocol": "THP-1 cells (2×10^5 cells/ml), which were human monocytoid cells, were cultured in the presence of 10 ng/ml IFNγ for 2 days, and they were induced to differentiate into macrophage-like cells. The differentiation-induced THP-1 cells were recovered, and the cells (5×10^4 cells/well) were then allowed to react with a predetermined concentration of test compound at room temperature for 30 minutes. Thereafter, Escherichia coli (Life Technologies) labeled with a pH-sensitive dye (pHrodo) was subjected to opsonization using an anti-Escherichia coli antibody (Life Technologies). Then, the resultant was added to the THP-1 cells obtained above, followed by incubation at 37° C. for 3 hours. Opsonized Escherichia coli and cell-permeable fluorescent dye (Calcein AM) were simultaneously added thereto, followed by quantitative determination of phagocytosis of opsonized Escherichia coli in viable cells using an IN Cell Analyzer."}}, "data": [{"smiles": "COc1ncc(Nc2nc(N[C@H](C3CCC3)[C@H](C)N)c(F)cc2C(N)=O)cc1-n1ccnn1", "note": "[Example 2-166, 6-(((1R,2S)-2-amino-1-cyclobutylpropyl)amino)-5-fluoro-2-((6-methoxy-5-(1H-1,2,3-triazol-1-yl)pyridin-3-yl)amino)nicotinamide]", "values": [{"measurement": "IC50", "setting": "[1]", "value": "0.01 to 0.05", "unit": "µM"}, {"measurement": "IC50", "setting": "[2]", "value": "1 to 3", "unit": "µM"}]}, {"smiles": "Cn1nc(OC(F)F)c2cc(Nc3nc(N[C@@H]4CCCC[C@@H]4N)c(F)cc3C(N)=O)ccc21", "note": "[Example 2-169, 6-(((1R,2S)-2-aminocyclohexyl)amino)-2-((3-(difluoromethoxy)-1-methyl-1H-indazol-5-yl)amino)-5-fluoronicotinamide]", "values": [{"measurement": "IC50", "setting": "[1]", "value": "< 0.01", "unit": "µM"}, {"measurement": "IC50", "setting": "[2]", "value": "< 1", "unit": "µM"}]}, {"smiles": "COCCn1nc(OC(F)F)c2cc(Nc3nc(N[C@H](COC)[C@H](C)N)c(F)cc3C(N)=O)ccc21", "note": "[Example 2-178, 6-(((2S,3S)-3-amino-1-methoxybutan-2-yl)amino)-2-((3-(difluoromethoxy)-1-(2-methoxyethyl)-1H-indazol-5-yl)amino)-5-fluoronicotinamide]", "values": [{"measurement": "IC50", "setting": "[1]", "value": "< 0.01", "unit": "µM"}, {"measurement": "IC50", "setting": "[2]", "value": "1 to 3", "unit": "µM"}]}, {"smiles": "CC[C@H](N)[C@@H](C)Nc1nc(Nc2cc(F)c3c(c2)c(N(C)C)nn3C)c(C(N)=O)cc1F", "note": "[Example 2-194, 6-(((2R,3S)-3-aminopentan-2-yl)amino)-2-((3-(dimethylamino)-7-fluoro-1-methyl-1H-indazol-5-yl)amino)-5-fluoronicotinamide]", "values": [{"measurement": "IC50", "setting": "[1]", "value": "< 0.01", "unit": "µM"}, {"measurement": "IC50", "setting": "[2]", "value": "1 to 3", "unit": "µM"}]}, {"smiles": "COC[C@@H](Nc1nc(Nc2cnc(C)c(-n3nccn3)c2)c(C(N)=O)cc1F)[C@H](C)N", "note": "[Example 2-197, 6-(((2S,3S)-3-amino-1-methoxybutan-2-yl)amino)-5-fluoro-2-((6-methyl-5-(2H-1,2,3-triazol-2-yl)pyridin-3-yl)amino)nicotinamide]", "values": [{"measurement": "IC50", "setting": "[1]", "value": "0.01 to 0.05", "unit": "µM"}, {"measurement": "IC50", "setting": "[2]", "value": "3 to 6", "unit": "µM"}]}, {"smiles": "CCC[C@@H](Nc1nc(Nc2cnc(OC)c(-n3ccnn3)c2)c(C(N)=O)cc1F)[C@H](C)N", "note": "[Example 2-205, 6-(((2S,3R)-2-aminohexan-3-yl)amino)-5-fluoro-2-((6-methoxy-5-(1H-1,2,3-triazol-1-yl)pyridin-3-yl)amino)nicotinamide]", "values": [{"measurement": "IC50", "setting": "[1]", "value": "0.01 to 0.05", "unit": "µM"}, {"measurement": "IC50", "setting": "[2]", "value": "1 to 3", "unit": "µM"}]}, {"smiles": "NC(=O)c1cc(F)c(N[C@@H]2CCOC[C@@H]2N)nc1Nc1cnc(N2CCOCC2)c(F)c1", "note": "[Example 2-217, 6-(((3R,4R)-3-aminotetrahydro-2H-pyran-4-yl)amino)-5-fluoro-2-((5-fluoro-6-morpholinopyridin-3-yl)amino)nicotinamide]", "values": [{"measurement": "IC50", "setting": "[1]", "value": "0.05 to 0.1", "unit": "µM"}, {"measurement": "IC50", "setting": "[2]", "value": "1 to 3", "unit": "µM"}]}, {"smiles": "NC(=O)c1cc(F)c(N[C@@H]2CCOC[C@@H]2N)nc1Nc1ccnc(N2CCOCC2)c1F", "note": "[Example 2-231, 6-(((3R,4R)-3-aminotetrahydro-2H-pyran-4-yl)amino)-5-fluoro-2-((3-fluoro-2-morpholinopyridin-4-yl)amino)nicotinamide]", "values": [{"measurement": "IC50", "setting": "[1]", "value": "0.01 to 0.05", "unit": "µM"}, {"measurement": "IC50", "setting": "[2]", "value": "1 to 3", "unit": "µM"}]}, {"smiles": "CC(C)C[C@@H](Nc1nc(Nc2cc(N3CCOCC3)ncc2F)c(C(N)=O)cc1F)[C@H](C)N", "note": "[Example 2-236, 6-(((2S,3R)-2-amino-5-methylhexan-3-yl)amino)-5-fluoro-2-((5-fluoro-2-morpholinopyridin-4-yl)amino)nicotinamide]", "values": [{"measurement": "IC50", "setting": "[1]", "value": "0.01 to 0.05", "unit": "µM"}, {"measurement": "IC50", "setting": "[2]", "value": "1 to 3", "unit": "µM"}]}, {"smiles": "NC(=O)c1cc(F)c(N[C@@H]2CCCC[C@@H]2N)nc1Nc1cnc(OC(F)F)c(-n2nccn2)c1", "note": "[Example 2-238, 6-(((1R,2S)-2-aminocyclohexyl)amino)-2-((6-(difluoromethoxy)-5-(2H-1,2,3-triazol-2-yl)pyridin-3-yl)amino)-5-fluoronicotinamide]", "values": [{"measurement": "IC50", "setting": "[1]", "value": "0.01 to 0.05", "unit": "µM"}, {"measurement": "IC50", "setting": "[2]", "value": "< 1", "unit": "µM"}]}, {"smiles": "CCCC[C@@H](Nc1nc(Nc2cnc3c(c2)c(N(C)C)nn3C)c(C(N)=O)cc1F)[C@H](C)N", "note": "[Example 2-291, 6-(((2S,3R)-2-aminoheptan-3-yl)amino)-2-((3-(dimethylamino)-1-methyl-1H-pyrazolo[3,4-b]pyridin-5-yl)amino)-5-fluoronicotinamide]", "values": [{"measurement": "IC50", "setting": "[1]", "value": "0.01 to 0.05", "unit": "µM"}, {"measurement": "IC50", "setting": "[2]", "value": "1 to 3", "unit": "µM"}]}]}
